Assays:
[1] = test system: T. gondii RH strain tachyzoites; experiment: Toxoplasma gondii cells drug testing assay (infection index in Vero cells, 72 h); format: cell-based; settings: for IC50: Toxoplasma gondii, Vero, IC50 ± SD, three independent experiments, 72 h; for SI = selectivity index (Vero/T. gondii): ratio IC50 Vero / IC50 T. gondii
Method: Cells of the Vero cell line (ATCC® CCL81™, Manassas, VA, USA) were used to cultivate T. gondii RH strain tachyzoites. Vero cells were maintained in complete RPMI 1640 medium (Thermo Fisher Scientific, Waltham, MA, USA). For cell cultivation, 96-well plates were prepared with 5 × 10^3 cells per well in 200 μL of RPMI 1640 medium, then incubated at 37 °C and 5% CO2 for 24 h. The medium was then removed, and cells were washed with phosphate-buffered saline (PBS). Next, RPMI 1640 medium with 2% FBS and parasites at a 5:1 parasite-to-cell ratio were added. After a 5 h incubation at 37 °C and 5% CO2, cells were washed with PBS and subjected to further treatments. […] After incubation at 37 °C and 5% CO2 for 72 h, cells were washed with PBS, fixed in 10% formalin, and stained with 1% toluidine blue. An inverted photomicroscope was used to assess cell infection and to determine the infection index (number of infected cells out of 200 counted cells). The inhibition percentage was calculated as follows:Inhibition (%) = [(I Control − I Experimental)/I Control] × 100 where “I Control” represents the infection index of untreated cells, and “I Experimental” represents the infection index of cells treated with test compounds. The effects of the compounds on parasite growth are expressed as IC50 values derived from three independent experiments.

[2] = test system: Vero monkey kidney cells; experiment: Vero cell cytotoxicity (MTT assay, 72 h); format: cell-based; settings: Primates, IC50 ± SD
Method: To assess the test compounds’ cytotoxicity, MTT assays were performed. The Vero cells and macrophages were cultivated for 24 h at 37 °C in RPMI 1640 media with 10% FBS and 5% CO2 in 96-well plates (5 × 10^3 cells/well/200 μL). Following a washing step with PBS, the cells were treated with test compounds at different concentrations (50, 25, 12.5, 6.25, 3.13, 1.65, and 0.75 μg /mL) in 10% FBS medium for 72 h. Negative control cells were only given media with 2% FBS and 1% DMSO. The cells were cultured for 4 h after the supernatant was disposed of, and 50 μL of RPMI 1640 media containing 14 μL MTT (5 mg/mL) was added. After removing the supernatant once again, 150 μL of DMSO was added. IC50 values were determined from three independent experiments.

[3] = test system: L. major promastigotes; experiment: Leishmania major promastigote assay (MTT, 72 h); format: cell-based
Method: (§1) Promastigotes of L. major were obtained from a patient (February 2016) and cultured at 26 °C in Schneider’s Drosophila medium (Invitrogen, Carlsbad, CA, USA) supplemented with 10% heat-inactivated fetal bovine serum (FBS, Invitrogen, USA) and antibiotics, with weekly transfers in a tissue culture flask. Promastigotes were cryopreserved in liquid nitrogen at a concentration of 3 × 10^6 parasites/mL. Virulent L. major parasites were maintained by serial passage in female BALB/c mice, achieved by injecting hind footpads with 1 × 10^6 stationary-phase promastigotes. Amastigotes were isolated from the mice after 8 weeks, then converted to promastigotes by cultivation at 26 °C in Schneider’s medium containing 10% FBS and antibiotics. Amastigote-derived promastigotes, which underwent several in vitro passages, were used for the infection studies. BALB/c mice (both male and female) were provided by the Pharmaceutical College, King Saud University, Kingdom of Saudi Arabia, and housed in specific pathogen-free conditions following the ethical guidelines of the Qassim University Research Ethics Committee (permission number: 20-03-20).
L. major promastigotes in the logarithmic phase were cultured in phenol-red-free RPMI 1640 medium (Invitrogen, USA) with 10% FBS in 96-well plates at 10^6 cells/mL (200 μL/well, counted with a hemocytometer). Test compounds were added at final concentrations of 50, 25, 12.5, 6.25, 3.13, 1.65, and 0.75 μg/mL. […] After incubation at 26 °C for 72 h, viable promastigotes were counted using an MTT colorimetric assay. The formed formazan was dissolved in a detergent and the absorbance was measured at 570 nm using an ELISA reader. IC50 values were derived from three independent experiments.

[4] = test system: L. major amastigotes; experiment: Leishmania major amastigotes in peritoneal macrophages (percentage of infected macrophages, 72 h); format: cell-based; settings: Macrophage, IC50 ± SD
Method: as §1
Activity against amastigotes in macrophages was evaluated using peritoneal macrophages, which were harvested from 6–8-week-old BALB/c mice of different sex, and plated at 5 × 10^4 cells/well in 96-well plates containing phenol-red-free RPMI 1640 medium with 10% FBS. After 4 h at 37 °C and 5% CO2 to promote adhesion, cells were washed with PBS, and 200 μL of an L. major promastigote solution (10 promastigotes per macrophage) was added. Plates were incubated for 24 h at 37 °C in a 5% CO2 environment to allow infection and amastigote differentiation. Infected cells were then washed with PBS and overlaid with RPMI 1640 medium containing the test compounds at the same concentrations as applied for the experiments with promastigotes, followed by incubation at 37 °C and 5% CO2 for 72 h. […] IC50 values were calculated from three independent experiments.

[5] = test system: macrophages; experiment: Macrophage cytotoxicity (MTT assay, 72 h); format: cell-based, BALB/c mice; settings: Mus musculus, IC50 ± SD
Method: Plates were incubated for 24 h at 37 °C in a 5% CO2 environment to allow infection and amastigote differentiation. Infected cells were then washed with PBS and overlaid with RPMI 1640 medium containing the test compounds at the same concentrations as applied for the experiments with promastigotes, followed by incubation at 37 °C and 5% CO2 for 72 h. […] The percentage of infected macrophages was determined microscopically after fixation, Giemsa staining, and medium removal. IC50 values were calculated from three independent experiments. To assess the test compounds’ cytotoxicity, MTT assays were performed. […] Negative control cells were only given media with 2% FBS and 1% DMSO. The cells were cultured for 4 h after the supernatant was disposed of, and 50 μL of RPMI 1640 media containing 14 μL MTT (5 mg/mL) was added. After removing the supernatant once again, 150 μL of DMSO was added. IC50 values were determined from three independent experiments.

[6] = Leishmania major, 72 h, IC50 ± SD, MTT
[7] = ratio IC50 macrophages / IC50 promastigotes
[8] = verbal statement in text on the L. major experiments

| SMILES | IC50 [1] | IC50 [2] | IC50 [3, 6] | IC50 [4] | IC50 [5] | SI = selectivity index (Vero/T. gondii) [1] | IC50 ([3]; IC50 ± SD, MTT, 72 h) | SI (promastigotes) = selectivity index (macrophages/L. major promastigotes) [3, 7] | activity against L. major promastigotes (in words) [3, 8] | activity against T. gondii (in words) [1] | IC50 ([3]; Leishmania major; IC50 ± SD, MTT, 72 h) |
| --- | --- | --- | --- | --- | --- | --- | --- | --- | --- | --- | --- |
| CC(C)c1cccc(C(C)CC=O)c1 (stereo not drawn) [Florhydral^TM, 3-(3-isopropylphenyl)butanal, reference compound] | > 105 µM | 99.1 ± 18.4 µM | > 105 µM | > 105 µM | > 105 µM | – | – | – | – | – | – |
| CC(C)c1cccc(C(C)C/C=N/NC(=O)c2cccc(Cl)c2)c1 (stereo not drawn) [Compound 4f, N′-3-(3-Isopropylphenyl)butanylidene-3-chlorobenzoylhydrazide] | 47.5 ± 7.3 µM | 57.9 ± 11 µM | < 30 µM | > 58.3 µM | > 58.3 µM | 1.2 | 27.9 ± 4.2 µM | >2.1 | – | – | – |
| CC(C)c1cccc(C(C)CC=NNC(=O)c2cc3ccccc3cc2O)c1 (stereo not drawn) [Compound 4a, N′-3-(3-Isopropylphenyl)butanylidene-3-hydroxy-2-naphthoic hydrazide] | 14.4 ± 2.1 µM | 39.6 ± 4.8 µM | < 10 µM | > 53.4 µM | > 53.4 µM | 2.8 | 9.6 ± 2.4 µM | – | moderate activity | – | – |
| CC(C)c1cccc(C(C)C/C=N/NC(=O)c2ccccc2F)c1 (stereo not drawn) [Compound 4d, N′-3-(3-Isopropylphenyl)butanylidene-2-fluorobenzoylhydrazide] | > 61.3 µM | > 61.3 µM | > 61.3 µM | > 61.3 µM | > 61.3 µM | – | – | – | – | – | – |
| O=C(N/N=C/C=C/c1ccccc1)c1ccccc1O [Compound 2c] | 1.1 ± 0.2 µM | 19.5 ± 2.6 µM | 47.7 ± 6.5 µM | > 49.6 µM | 43.6 ± 8.6 µM | 17.3 | – | 0.91 | – | – | – |
| O=C(N/N=C/C=C/c1ccccc1)c1ccncc1 [Compound 2l] | 52.1 ± 8.3 µM | 51.3 ± 7.8 µM | 51.3 ± 9.3 µM | > 52.5 µM | > 52.5 µM | 0.99 | – | >1.0 | – | – | – |
| O=C/C=C/c1ccccc1 [Cinnamaldehyde, (2E)-3-phenylprop-2-enal] | > 151 µM | > 151 µM | – | > 151 µM | > 151 µM | – | – | – | – | inactive | > 151 µM |
| CC(C)Cc1ccc(CC(C)C=O)cc1 (stereo not drawn) [Silvial^TM, 2-methyl-3-[4-(2-methylpropyl)phenyl]propanal, reference compound] | 90.1 ± 15.2 µM | > 97.9 µM | > 97.9 µM | > 97.9 µM | > 97.9 µM | – | – | – | – | – | – |
| C(=C\c1ccccc1)/C=N/Nc1ccccc1 [CPH, Cinnamaldehyde phenyl hydrazone, reference compound] | 12.9 ± 2.1 µM | 23.6 ± 3.9 µM | 83.7 ± 13.6 µM | – | 78.4 ± 12.2 µM | 1.8 | – | 0.94 | – | – | – |
| O=C(N/N=C/C=C/c1ccccc1)c1cc2ccccc2cc1O [Compound 2a] | 0.63 ± 0.08 µM | 7.3 ± 0.9 µM | 16.8 ± 2.8 µM | > 41.7 µM | > 41.7 µM | 11.5 | – | >2.5 | moderate activity | – | – |
| O=C(N/N=C/C=C/c1ccccc1)c1ccccc1F [Compound 2g] | 69.4 ± 10 µM | > 74.6 µM | > 74.6 µM | > 74.6 µM | > 74.6 µM | – | – | – | – | – | – |
| CN(C)c1ccc(/C=C/C=N/NC(=O)c2cc3ccccc3cc2O)cc1 [Compound 2b] | 23.4 ± 3.9 µM | 24.2 ± 2.7 µM | > 36.7 µM | > 36.7 µM | > 36.7 µM | 1.0 | – | – | – | – | – |
| CN(C)c1ccc(/C=C/C=N/NC(=O)c2ccccc2O)cc1 [Compound 2d, (E)-N′-(4-Dimethylaminocinnamylidene)-2-hydroxybenzoylhydrazide] | 3.9 ± 0.5 µM | 22 ± 3 µM | > 42.7 µM | > 42.7 µM | > 42.7 µM | 5.7 | – | – | – | reasonable activity | – |
| CN(C)c1ccc(/C=C/C=N/NC(=O)c2ccncc2)cc1 [Compound 2m] | 31.6 ± 6.2 µM | 41.5 ± 7.2 µM | > 44.8 µM | > 44.8 µM | > 44.8 µM | 1.3 | – | – | – | – | – |
| CC(C)Cc1ccc(CC(C)/C=N/NC(=O)c2cccc(F)c2)cc1 (stereo not drawn) [Compound 3e, N′-2-Methyl-3-[4-(2-methylpropyl)phenyl]propanylidene-3-fluorobenzoylhydrazide] | 45.3 ± 6.9 µM | 53.5 ± 8.5 µM | > 58.8 µM | > 58.8 µM | > 58.8 µM | 1.2 | – | – | – | – | – |
| CC(C)Cc1ccc(CC(C)/C=N/NC(=O)c2cc3ccccc3cc2O)cc1 (stereo not drawn) [Compound 3a, N′-2-Methyl-3-[4-(2-methylpropyl)phenyl]propanylidene-3-hydroxy-2-naphthoic hydrazide] | 46.9 ± 8.4 µM | 41.3 ± 6.9 µM | > 51.5 µM | > 51.5 µM | > 51.5 µM | 0.88 | – | – | – | – | – |
| CC(C)c1cccc(C(C)C/C=N/NC(=O)c2ccncc2)c1 (stereo not drawn) [Compound 4g, N′-3-(3-Isopropylphenyl)butanylidene-isonicotinoylhydrazide] | > 64.6 µM | > 64.6 µM | 54.6 ± 9 µM | > 64.6 µM | > 64.6 µM | – | – | >1.2 | – | – | – |
| CC(C)c1cccc(C(C)C/C=N/NC(=O)c2ccccc2O)c1 (stereo not drawn) [Compound 4b, N′-3-(3-Isopropylphenyl)butanylidene-2-hydroxybenzoylhydrazide] | 21 ± 3.5 µM | 19.2 ± 2.2 µM | 39.5 ± 5.9 µM | 45.4 ± 7.9 µM | 50.3 ± 9.4 µM | 0.92 | – | 1.3 | – | – | – |
